What was measured:
[1] = biological target: PRMT5 (Homo sapiens, UniProt O14744); experiment: PRMT5 IC50 (Table 2; no method described); assay type: biochemical; settings: read-out: PRMT5_ IC50
[2] = biological target: T1, Human CARM1 (PRMT4) (Homo sapiens, UniProt Q86X55); experiment: CARM1 biochemical assay (3H-SAM Flashplate, peptide substrate); settings: read-out: CARM1_ IC50
T1 construct: Flag-CARM1-His; made in house; host or cells: HEK 293F cells (BacMam baculovirus, pFastBacMam)
T1 sequence (Q86X55 2-585 isoform Q86X55-1): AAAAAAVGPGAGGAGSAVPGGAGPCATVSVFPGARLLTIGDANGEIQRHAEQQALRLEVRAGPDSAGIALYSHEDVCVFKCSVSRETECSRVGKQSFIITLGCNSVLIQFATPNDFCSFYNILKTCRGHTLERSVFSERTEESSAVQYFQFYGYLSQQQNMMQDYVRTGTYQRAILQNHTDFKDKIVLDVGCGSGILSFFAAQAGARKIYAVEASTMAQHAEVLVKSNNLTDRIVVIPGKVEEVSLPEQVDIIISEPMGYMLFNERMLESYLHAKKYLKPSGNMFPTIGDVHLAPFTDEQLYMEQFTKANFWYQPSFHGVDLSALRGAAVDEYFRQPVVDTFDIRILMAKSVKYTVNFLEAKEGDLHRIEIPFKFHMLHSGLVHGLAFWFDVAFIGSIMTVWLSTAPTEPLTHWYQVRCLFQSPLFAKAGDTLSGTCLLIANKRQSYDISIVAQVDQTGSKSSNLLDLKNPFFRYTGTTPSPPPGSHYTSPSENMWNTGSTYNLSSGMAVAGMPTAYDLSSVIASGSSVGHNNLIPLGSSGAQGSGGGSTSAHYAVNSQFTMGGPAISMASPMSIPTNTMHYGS
In short: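 FLAG/His-tagged human CARM1 (isoform 1, Δ539-561, baculovirus-expressed), 0.25 nM, preincubated 30 min at room temperature with compound (2% DMSO) in 20 mM Bicine pH 7.6, then reacted with 30 nM 3H-SAM and 250 nM biotinylated H3 16-30 peptide (R26 monomethyl). Stopped with 300 uM cold SAM; labelled peptide captured on streptavidin Flashplate; % inhibition versus DMSO and 1 mM SAH controls fitted to a 4- or 3-parameter curve.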

[3] = test system: asymmetric di-methyl PABP1 in RKO cells; experiment: In Cell Western (ICW) for asymmetric di-methyl PABP1 and DNA content in RKO cells; assay type: cell-based; settings: Homo sapiens, RKO
In short: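 RKO cells treated with compound for 48 h at 37 °C, then fixed, methanol-permeabilized and stained for asymmetric di-methyl PABP1 (800 nm) with DRAQ5 DNA stain (700 nm). Signal ratio normalized to DMSO and 20 μM reference-compound controls. IC50 from nine 3-fold dilutions in triplicate.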

PRMT5, sequence (O14744 whole entry, species assumed): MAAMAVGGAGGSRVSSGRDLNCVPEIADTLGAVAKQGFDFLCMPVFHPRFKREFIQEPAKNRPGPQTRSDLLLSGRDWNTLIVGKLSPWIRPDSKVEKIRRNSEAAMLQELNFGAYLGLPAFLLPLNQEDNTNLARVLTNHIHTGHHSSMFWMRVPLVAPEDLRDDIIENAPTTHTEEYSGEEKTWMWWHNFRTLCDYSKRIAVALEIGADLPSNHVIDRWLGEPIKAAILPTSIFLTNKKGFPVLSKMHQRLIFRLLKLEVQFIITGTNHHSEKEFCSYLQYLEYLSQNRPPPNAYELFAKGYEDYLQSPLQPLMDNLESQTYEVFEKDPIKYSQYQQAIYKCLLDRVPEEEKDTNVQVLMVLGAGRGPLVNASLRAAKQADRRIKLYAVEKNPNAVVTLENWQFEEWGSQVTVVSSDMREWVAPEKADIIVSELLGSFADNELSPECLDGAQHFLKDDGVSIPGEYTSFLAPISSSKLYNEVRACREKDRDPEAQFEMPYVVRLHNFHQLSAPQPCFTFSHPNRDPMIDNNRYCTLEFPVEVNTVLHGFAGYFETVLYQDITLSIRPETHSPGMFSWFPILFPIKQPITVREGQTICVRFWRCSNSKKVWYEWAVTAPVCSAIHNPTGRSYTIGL
PRMT5, sequence (Q9BQA1 whole entry partner, species assumed): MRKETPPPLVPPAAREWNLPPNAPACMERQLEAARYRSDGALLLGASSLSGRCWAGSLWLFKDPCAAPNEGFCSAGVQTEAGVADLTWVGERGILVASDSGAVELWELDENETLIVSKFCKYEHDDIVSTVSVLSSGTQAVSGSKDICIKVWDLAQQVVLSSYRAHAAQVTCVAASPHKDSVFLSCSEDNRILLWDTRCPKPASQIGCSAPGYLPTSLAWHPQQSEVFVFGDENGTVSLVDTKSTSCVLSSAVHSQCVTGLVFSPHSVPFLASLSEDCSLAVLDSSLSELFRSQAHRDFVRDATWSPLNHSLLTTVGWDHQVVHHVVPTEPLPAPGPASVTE

| IC50 [1] | IC50 [2] | IC50 ([3]; In Cell Western) | IC50 ([3]; 48 h) | Structure (SMILES) |
| --- | --- | --- | --- | --- |
| 790 nM | 13.5 nM |  |  | CC(C)n1ncc2c(C(=O)N(C)[C@@H](C)c3ccccc3)cc(-c3cccc(CN(C)CCN)c3)nc21 [Compound 193] |
| 1480 nM | 48.1 nM |  |  | CNCCN(C)Cc1cccc(-c2cc(C(=O)N(C)Cc3cccc(Cl)c3)c3cnn(C(C)C)c3n2)c1 [Compound 237] |
| 7420 nM | 49.7 nM |  |  | CC(C)n1ncc2c(C(=O)N(C)Cc3ccc(F)cc3)cc(-c3cccc(CN(C)CCN)c3)nc21 [Compound 240] |
| 235 nM | 51.9 nM |  |  | CC(C)n1ncc2c(C(=O)N(C)Cc3ccccc3Cl)cc(-c3cccc(CN(C)CCN)c3)nc21 [Compound 242] |
| 2830 nM | 53.1 nM |  |  | CNCCN(C)Cc1cccc(-c2cc(C(=O)N(C)Cc3cccc(F)c3)c3cnn(C(C)C)c3n2)c1 [Compound 244] |
| 577 nM | 54.3 nM |  |  | CNCCN(C)Cc1cccc(-c2cc(C(=O)N(C)C(C)c3ccccc3)c3cnn(C(C)C)c3n2)c1 (centres unmarked) [Compound 246] |
| 816 nM | 58.3 nM |  |  | CC(C)n1ncc2c(C(=O)N(C)Cc3ccccc3F)cc(-c3cccc(CN(C)CCN)c3)nc21 [Compound 250] |
| 47300 nM | 59.1 nM |  |  | CC(C)n1ncc2c(C(=O)NCc3cccc(F)c3)cc(-c3cccc(CN(C)CCN)c3)nc21 [Compound 251] |
| 1790 nM | 74.9 nM |  |  | CC(C)n1ncc2c(C(=O)N(C)Cc3cccc(Cl)c3)cc(-c3cccc(CN(C)CCN)c3)nc21 [Compound 266] |
| 13100 nM | 79.9 nM |  |  | CC(C)n1ncc2c(C(=O)N3CCc4ccccc4C3)cc(-c3cccc(CNCCN)c3)nc21 [Compound 269] |
| 8730 nM | 110 nM |  |  | CNCCN(C)Cc1cccc(-c2cc(C(=O)N(C)Cc3ccc(F)cc3)c3cnn(C(C)C)c3n2)c1 [Compound 278] |
| 17400 nM | 128 nM |  |  | CNCCN(C)Cc1cccc(-c2cc(C(=O)N[C@@H](C)c3ccccc3)c3cnn(Cc4ccccc4)c3n2)c1 [Compound 281] |
| 29200 nM | 131 nM |  |  | CNCCN(C)Cc1cccc(-c2cc(C(=O)N[C@@H](C)c3ccccc3)c3cnn(Cc4ccccc4F)c3n2)c1 [Compound 283] |
|  | 137 nM | 20000 nM |  | CNCCN(C)Cc1cccc(-c2cc(C(=O)NC3CCOCC3)c3cnn(C)c3n2)c1 [Compound 284] |
|  | 148 nM | 7150 nM |  | C=CCn1ncc2c(C(=O)NCC3CCOCC3)cc(-c3cccc(CN(C)CCNC)c3)nc21 [Compound 286] |
| 4170 nM | 153 nM |  |  | CC(C)n1ncc2c(C(=O)N(C)Cc3cccc(F)c3)cc(-c3cccc(CN(C)CCN)c3)nc21 [Compound 287] |
|  | 159 nM | 3440 nM |  | CNCCN(C)Cc1cccc(-c2cc(C(=O)NCC(F)(F)F)c3cnn(C(C)C)c3n2)c1 [Compound 288] |
|  | 163 nM | 16900 nM |  | CNCCN(C)Cc1cccc(-c2cc(C(=O)NCC3CCOCC3)c3cnn(C)c3n2)c1 [Compound 289] |
|  | 167 nM | 20000 nM |  | CNCCN(C)Cc1cccc(-c2cc(CO)c3cnn(C(C)C)c3n2)c1 [Compound 290] |
|  | 171 nM | 14000 nM |  | CNCCN(C)Cc1cccc(-c2cc(C(=O)N(C)C3CC3)c3cnn(C(C)C)c3n2)c1 [Compound 292] |
|  | 173 nM | 17600 nM |  | CNCCN(C)Cc1cccc(-c2cc(C(F)(F)F)c3cnn(C(C)C)c3n2)c1 [Compound 293] |
|  | 177 nM | 4020 nM |  | CNCCN(C)Cc1cccc(-c2cc(C(=O)N(C)Cc3cccnc3)c3cnn(C(C)C)c3n2)c1 [Compound 294] |
|  | 181 nM | 12400 nM |  | CC(C)n1ncc2c(C(=O)NC3CCOCC3)cc(-c3cccc(CN(C)CCNC4CC4)c3)nc21 [Compound 295] |
|  | 183 nM | 15700 nM |  | CNCCN(C)Cc1cccc(-c2cc(C(=O)N3CCN(C)C(=O)C3)c3cnn(C(C)C)c3n2)c1 [Compound 296] |

| IC50 [1] | IC50 [2] | IC50 ([3]; In Cell Western) | IC50 ([3]; 48 h) | Structure (SMILES) |
| --- | --- | --- | --- | --- |
|  | 189 nM | 20000 nM |  | CC(C)n1cc2c(C(=O)NCC3CCOCC3)cc(-c3cccc(CN(C)CCN)c3)nc2n1 [Compound 297] |
|  | 200 nM | 9620 nM |  | CNCCN(C)Cc1cccc(-c2cc(C(=O)N(C)CC3CCOCC3)c3cnn(C(C)C)c3n2)c1 [Compound 298] |
|  | 209 nM | 15500 nM |  | CNCCN(C)Cc1cccc(-c2cc(C(=O)N3Cc4cccnc4C3)c3cnn(C(C)C)c3n2)c1 [Compound 301] |
| 13300 nM | 235 nM |  |  | CNCCN(C)Cc1cccc(-c2cc(C(=O)N[C@@H](C)c3ccccc3)c3cnn(-c4ccccn4)c3n2)c1 [Compound 303] |
| 670 nM | 239 nM |  |  | CNCCN(C)Cc1cccc(-c2cc(C(=O)N(C)Cc3ccccc3F)c3cnn(C(C)C)c3n2)c1 [Compound 304] |
|  | 250 nM | 20000 nM |  | CNCCN(C)Cc1cccc(-c2cc(C(O)c3ccncc3)c3cnn(C(C)C)c3n2)c1 (centres unmarked) [Compound 307] |
| 1070 nM | 272 nM |  |  | COc1ccc(Cn2cnc3ccc(-c4cccc(CNCCN)c4)cc32)cc1 [Compound 309] |
|  | 293 nM | 14200 nM |  | CNC(=O)c1cc(-c2cccc(CNCCN)c2)nc2c1cnn2C(C)C [Compound 311] |
|  | 401 nM | 20000 nM |  | CC(C)n1ncc2c(NCC(=O)O)cc(-c3cccc(CN(C)CCN)c3)nc21 [Compound 319] |
| 127 nM | 756 nM |  |  | NCCNCc1ccc(-c2ccc3ncn(Cc4cccc(C(=O)N5CCCC5)c4)c3c2)cc1 [Compound 323] |
| 97.3 nM | 887 nM |  |  | NCCNCc1ccc(-c2ccc3cnn(Cc4cccc(C(=O)N5CCCC5)c4)c3c2)cc1 [Compound 324] |
| 25.3 nM | 1030 nM |  |  | NCCNCc1ccc(-c2ccc3ncn(Cc4cccc(C(=O)NC5CCCc6ccccc65)c4)c3c2)cc1 (centres unmarked) [Compound 325] |
| 170 nM | 1270 nM |  |  | NCCNCc1ccc(-c2ccc3cnn(Cc4cccc(C(=O)N5CCCCC5)c4)c3c2)cc1 [Compound 326] |
| 72.8 nM | 1600 nM |  |  | NCCNCc1ccc(-c2ccc3ncn(Cc4cccc(C(=O)NC5CCCCC5)c4)c3c2)cc1 [Compound 327] |
| 80.5 nM | 2190 nM |  |  | NCCNCc1ccc(-c2ccc3ncn(Cc4cccc(C(=O)Nc5cccc6c5CCCC6)c4)c3c2)cc1 [Compound 328] |
| 117 nM |  |  |  | NCCNCc1ccc(-c2ccc3cnn(Cc4cccc(C(=O)N5CCOCC5)c4)c3c2)cc1 [Compound 349] |
| 172 nM |  |  |  | NCCNCc1ccc(-c2ccc3cnn(Cc4ccncc4)c3c2)cc1 [Compound 350] |
| 235 nM |  |  |  | NCCNCc1ccc(-c2ccc3cnn(C4CCNCC4)c3c2)cc1 [Compound 351] |
| 325 nM |  |  |  | CC(=O)N1CCC(Cn2cnc3ccc(-c4ccc(CNCCN)cc4)cc32)CC1 [Compound 352] |
| 351 nM |  |  |  | CC(=O)N1CCC(Cn2ncc3ccc(-c4ccc(CNCCN)cc4)cc32)CC1 [Compound 353] |
| 452 nM |  |  |  | CC(C)(C)C(=O)Cn1cnc2cc(-c3ccc(CNCCN)cc3)ccc21 [Compound 354] |
| 393 nM |  |  |  | CN(CCc1ccccn1)C(=O)c1cncc(-c2ccc(CNCCN)cc2)c1 [Compound 357] |
|  | 97.2 nM |  | 10900 nM | CCN(c1cc(-c2cccc(CN(C)CCNC)c2)cc(C(=O)NCc2c(C)cc(C)[nH]c2=O)c1C)C1CCOCC1 [Compound 387] |
|  | 149 nM |  | ≥ 20000 nM | Cc1cc(C)c(CNC(=O)c2cc(-c3cc(CNCCN)ccc3C)cc3c2cnn3C(C)C)c(=O)[nH]1 [Compound 388] |
